Tests used:
[1] = Solubility of CBD in ethanol:water mixtures
[2] = Capture of target molecule from solution by insoluble cross-linked cyclodextrin polymer (batch slurry, supernatant measured after filtration); details: Example 9: 2 mg/mL CBD in 1:1 ethanol:water, 10:1 polymer:CBD
Method: A standard protocol was followed in all Examples with the variances from the standard protocol as described in each Example. The standard protocol included a plurality of steps. A mass of CBD was dissolved in ethanol to form a stock solution. A reference sample of the stock solution was diluted with ethanol to obtain a target CBD or other target molecule concentration for a reference measurement. A reaction sample was taken from the remaining stock solution. A cross-linked polysaccharide was combined with the reaction sample in a ratio relative to the CBD or other target molecule concentration present in the reaction sample (by mass) as specified in Examples. The cross-linked polymer is HDI-linked cyclodextrin prepared with a ratio of 8:1 HDI to cyclodextrin.
Water is combined with the reaction sample until the reaction sample reaches a target CBD or other target molecule concentration, and a target ethanol to water ratio. The reaction mixture including the water is filtered at a cutoff size of between 75 μm to 4,000 μm aperture size, or exposed to a magnetic field with a neodymium magnet through the wall of a flask, to retrieve the cross-linked polymer bound with CBD or other target molecule concentration. Once retrieved, the cross-linked polymer is flushed with a dissociation solvent for dissolving the target molecule. […]

Compound: C=C(C)[C@@H]1CCC(C)=C[C@H]1c1c(O)cc(CCCCC)cc1O [CBD, cannabidiol]
- solubility of CBD ([1]; 40:60 EtOH:H2O, 2 mg/mL CBD): not fully dissolved
- solubility of CBD ([1]; 45:56 EtOH:H2O, 2 mg/mL CBD): cloudy
- solubility of CBD ([1]; 50:50 EtOH:H2O, EtOH added first then H2O): dissolves
- solubility of CBD ([1]; Example 13: 6 mg/mL in 1:1 EtOH:H2O with sonication and heating): did not dissolve
- percent of the CBD not in solution ([1]; Example 17: CBD in 3:7 EtOH:H2O): Ten
- time to capture plateau [2]: about 5 minutes

Source: patent US12678472B2, “Method for selective recovery of hydrophobic compounds” (priority 2019, dated 2026)
